The record followed here is US20250152719A1, “FUSED IMIDE DERIVATIVE” (Chia Tai Tianqing Pharmaceutical Group Co., Ltd., priority 2021, published 2025).

pIC50: −log10 of the molar value. Like-named read-outs stand apart in the source and are kept apart here.

For data set [1], the target named is EGFR kinase (Homo sapiens (Human), UniProt P00533). Description: Inhibitory activity on EGFR kinase. The data set is classed as biochemical. Conditions: ATP 5 μM. As to the method: The Assay Buffer was prepared, and the composition of the Assay Buffer was 50 mM Hepes (Gibco, 15630), 10 mM MgCl2, 2 mM DTT, 1 mM EGTA, and 0.010% Tween 20. EGFR kinase (Carna, 08-115), ATP (Sigma, A7699), and ULight-poly GT (PE, TRF0100-M) working solutions were prepared using the Assay Buffer. EDTA and Eu-labeled anti-phosphotyrosine (PT66) antibody (PE, AD0069) working solutions were prepared using the Detection Buffer. 6 μL of EGFR kinase at the corresponding concentration (final concentration: 0.006 ng/μL) was added to the compound groups and the control group, while 6 μL of the Assay Buffer was added to the blank group, and then the compounds (with the concentration set to 1000 nM at the maximum, 4-fold dilution, 7 concentration gradients) were added using a nanoliter pipettor. The mixture was incubated at room temperature for 30 min, and then 4 μL of the mixture of ATP (final concentration: 5 μM) and ULight-poly GT (final concentration: 100 nM) was added. After incubation at room temperature for 2 h, 5 μL of EDTA (final concentration: 10 mM) was added to stop the reaction, and finally 5 μL of antibody (final concentration: 2 nM) was added. After incubation at room temperature for 1 h, signal values were detected at 665/615 nM, the four-parameter analysis was performed, the dose-response curves were fit, and IC50 was calculated.
Chain of EGFR kinase (P00533 669-1210): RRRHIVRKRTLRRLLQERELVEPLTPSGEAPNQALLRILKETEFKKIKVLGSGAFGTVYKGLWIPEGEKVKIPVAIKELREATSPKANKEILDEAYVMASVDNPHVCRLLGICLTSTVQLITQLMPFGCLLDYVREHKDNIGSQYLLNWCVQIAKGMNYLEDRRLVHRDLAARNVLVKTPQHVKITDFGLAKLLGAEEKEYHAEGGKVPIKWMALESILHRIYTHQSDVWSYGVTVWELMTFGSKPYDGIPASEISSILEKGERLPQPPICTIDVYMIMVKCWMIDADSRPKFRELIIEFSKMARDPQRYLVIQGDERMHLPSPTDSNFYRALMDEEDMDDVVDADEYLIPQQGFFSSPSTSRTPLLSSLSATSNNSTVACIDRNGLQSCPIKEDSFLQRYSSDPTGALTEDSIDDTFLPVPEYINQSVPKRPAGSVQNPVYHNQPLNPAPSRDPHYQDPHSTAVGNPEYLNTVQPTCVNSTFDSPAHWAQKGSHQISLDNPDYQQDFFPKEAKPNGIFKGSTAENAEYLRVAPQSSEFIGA

For data set [2], the system named is OCI-LY10 cells. Put plainly: Inhibitory activity on OCI-LY10 cell proliferation (CCK-8). The data set is classed as cell-based. Put shortly: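 Cells seeded at 1×10^5 cells/mL and incubated overnight were exposed in duplicate to final compound concentrations of 5000 nM-0.31 nM for 72 h. CCK-8 was added for 2.5 h and absorbance read at 450 nm. IC50 was obtained from four-parameter dose-response fits.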

In data set [3] the target is BTK (Homo sapiens (Human), UniProt Q06187). Description: BTK degradation in OCI-LY10 cells (Total-BTK HTRF kit). The settings on record: 24 (or 6) h incubation; for DC50: DC50 = concentration when degradation rate reaches 50%, read-out: OCI-LY10 cell BTK degradation DC50; for Dmax: OCI-Ly10, OCI-LY10 cells. The data set is classed as cell-based. Put shortly: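 OCI-LY10 cells seeded overnight, then treated with compound at 100 nM-0.098 nM in duplicate for 24 (or 6) h. Lysates probed by Total-BTK HTRF (d2/Eu cryptate antibodies, overnight, room temperature), read at 665/620 nm; DC50 and Dmax from four-parameter dose-response fits.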
Chain of BTK (Q06187 whole entry): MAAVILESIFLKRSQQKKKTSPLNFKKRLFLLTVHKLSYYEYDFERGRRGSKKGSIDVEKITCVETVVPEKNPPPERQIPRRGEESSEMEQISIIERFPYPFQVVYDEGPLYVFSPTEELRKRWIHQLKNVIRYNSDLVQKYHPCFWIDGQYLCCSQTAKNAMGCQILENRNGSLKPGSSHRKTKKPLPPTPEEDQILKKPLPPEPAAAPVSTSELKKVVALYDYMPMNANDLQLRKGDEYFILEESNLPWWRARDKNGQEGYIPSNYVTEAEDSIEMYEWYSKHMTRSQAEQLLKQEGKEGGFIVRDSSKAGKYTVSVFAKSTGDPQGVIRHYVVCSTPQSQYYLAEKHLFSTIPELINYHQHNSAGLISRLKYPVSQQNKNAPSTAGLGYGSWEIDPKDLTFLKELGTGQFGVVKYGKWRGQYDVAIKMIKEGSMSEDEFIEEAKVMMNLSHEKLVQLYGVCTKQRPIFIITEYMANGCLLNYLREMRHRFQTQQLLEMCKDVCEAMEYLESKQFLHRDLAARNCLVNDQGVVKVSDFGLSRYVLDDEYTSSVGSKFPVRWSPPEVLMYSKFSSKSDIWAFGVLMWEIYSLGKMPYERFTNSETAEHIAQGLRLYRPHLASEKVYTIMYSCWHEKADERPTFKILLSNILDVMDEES

For data set [4], the target named is BTK(WT) kinase (Homo sapiens (Human), UniProt Q06187). Put plainly: Inhibitory activity on BTK(WT) kinase. The data set is classed as biochemical. The settings on record: ATP 10 μM. How it is done:
The Assay Buffer was prepared, and the composition of the Assay Buffer was 50 mM Hepes (Gibco, 15630), 10 mM MgCl2, 2 mM DTT, 1 mM EGTA, and 0.010% Tween 20. BTK(WT) kinase (Life, PR5442A), ATP (Sigma, A7699), and ULight-poly GT (PE, TRF0100-M) working solutions were prepared using the Assay Buffer. EDTA and Eu-labeled anti-phosphotyrosine (PT66) antibody (PE, AD0069) working solutions were prepared using the Detection Buffer (PE, CR97-100). 6 μL of BTK(WT) kinase at the corresponding concentration (final concentration: 0.003 ng/L) was added to the compound groups and the control group, while 6 μL of the Assay Buffer was added to the blank group, and then the compounds (with the concentration set to 1000 nM at the maximum, 4-fold dilution, 7 concentration gradients) were each added using a nanoliter pipettor. The mixture was incubated at room temperature for 30 min, and then 4 μL of the mixture of ATP (final concentration: 10 μM) and ULight-poly GT (final concentration: 100 nM) was added. After incubation at room temperature for 2 h, 5 μL of EDTA (final concentration: 10 mM) was added to stop the reaction, and finally 5 μL of antibody (final concentration: 2 nM) was added. After incubation at room temperature for 1 h, signal values were detected at 665/615 nM, the four-parameter analysis was performed, the dose-response curves were fit, and IC50 was calculated.

Data set [5] is described as follows: Mouse pharmacokinetics. The data set is classed as in vivo, ICR mice. As to the method:
ICR mice weighing 18-22 g were randomized into groups of 9 after 3-5 days of acclimatization and then intragastrically given the test compound solution at a dose of 10 mg/kg. Plasma samples to be tested were prepared by taking blood from the orbit at time points of 15 min, 30 min, 1 h, 2 h, 3 h, 4 h, 6 h, 8 h, 10 h, and 24 h. 20 μL of each plasma sample to be detected and a standard curve sample were taken, and an acetonitrile solution containing an internal standard was added. […] Pharmacokinetic parameters were fitted using a non-compartmental model (see Table 5).

Setting [6] is: Homo sapiens, OCI-Ly10, 72 h incubation.
Where [7] appears, read: ICR, mouse, plasma, iv, 1 mg/kg, Mouse i.v. 1 mpk.
The mark [8] stands for this setting: ICR, mouse, plasma, iv, 1 mg/kg, Mouse i.v. 1 mpk, read-out: AUC.
[9] abbreviates: ICR, mouse, plasma, po, 10 mg/kg, Mouse i.g. 10 mpk.
Setting [10] is: ICR, mouse, plasma, po, 10 mg/kg, Mouse i.g. 10 mpk, read-out: AUC.
Setting [11] is: ICR, mouse, plasma, po, 10 mg/kg, Mouse i.g. 10 mpk, read-out: Cmax.

A word on the pIC50: it is the IC50 on a negative log10 scale, so that one unit is a factor of ten. A lower pIC50 goes with a high IC50. As usually defined, the DC50 is the midpoint of the concentration-degradation curve. Broadly, the Dmax is the largest share of the target that was removed. A low value points to a partial loss of target. What is called clearance is the rate of elimination divided by the concentration. Lower therefore signals a low capacity for elimination. The half-life is the time in which the quantity being followed falls by half. As usually defined, the AUC is concentration integrated over time. Broadly, the Cmax is the peak of the concentration-time curve.

Chain of BTK(WT) kinase (Q06187 whole entry): as above

For `CN1CCN([C@@H]2CCCN(c3cnc(C(N)=O)c(Nc4ccc(N5CCC(CN6CCc7ccc8c(C9CCC(=O)NC9=O)noc8c7CC6)CC5)cc4)n3)C2)C1=O` (some centres unmarked) [Compound 27], the negative-log IC50 (pIC50) in data set [1] is 6.96; in data set [2] (setting [6]), greater than 9.51; in data set [4], 9.02. Moreover, the DC50 in data set [3] (OCI-LY10 cells) is less than 0.098 nM. In data set [3] (maximum degradation rate), this compound yielded a Dmax of 97%. The compound further gave a clearance in data set [5] (setting [7]) of 0.56 L/h/kg. For the same compound, the half-life in data set [5] (setting [7]) was 1.4 h; in data set [5] (setting [9]), 2.4 h. In addition, the AUC in data set [5] (setting [8]) is 1.76 µg·h/mL; in data set [5] (setting [10]), 7.69 µg·h/mL. Also, the Cmax in data set [5] (setting [11]) was 0.766 µg/mL. Moreover, the F in data set [5] (Mouse i.g. 10 mpk) came out at 44.0%.

Consider `CN1CCN([C@@H]2CCCN(c3cnc(C(N)=O)c(Nc4ccc(C5CCN(C6CN(c7ccc8c(C9CCC(=O)NC9=O)noc8c7)C6)CC5)cc4)n3)C2)C1=O` (some centres unmarked) [Compound 10], for which the pIC50 in data set [1] was 5.48; in data set [2] (setting [6]), greater than 9.51; in data set [4], 8.15. Moreover, the DC50 in data set [3] (OCI-LY10 cells) was less than 0.098 nM. The same compound had a Dmax in data set [3] (maximum degradation rate) of 99%. The clearance in data set [5] (setting [7]) was 0.159 L/h/kg. For the same compound, the half-life was 1.6 h in data set [5] (setting [7]) and 2.9 h in data set [5] (setting [9]). Besides, the AUC in data set [5] (setting [8]) was 6.14 µg·h/mL; in data set [5] (setting [10]), 35.6 µg·h/mL. In data set [5] (setting [11]), the highest concentration (Cmax) was 3.85 µg/mL. In addition, the F in data set [5] (Mouse i.g. 10 mpk) is 57.98%.

The compound `CN1CCN([C@@H]2CCCN(c3cnc(C(N)=O)c(Nc4ccc(C5CCC(N6Cc7ccc8c(C9CCC(=O)NC9=O)noc8c7C6)CC5)cc4)n3)C2)C1=O` (some centres unmarked) [Compound 33] had a pIC50 in data set [1] of 6.11. The compound also gave a pIC50 in data set [2] (72 h incubation) greater than 9.51. In addition, the “BTK degradation in OCI-LY10 cells Dmax” value in data set [3] (OCI-LY10 cells, maximum degradation rate) is reported as greater than 90%. This compound also showed a pIC50 in data set [4] of 7.96. Further, in data set [5] (Mouse i.g. 10 mpk), the AUC came to 20.971 µg·h/mL, the Cmax came out at 1.555 µg/mL, the F amounted to 26.0% and the t1/2 is reported as 3.2 h. In data set [5] (Mouse i.v. 1 mpk), this compound had an AUC of 7.987 µg·h/mL, a Cl of 0.13 L/h/kg and a t1/2 of 2.6 h.
